What was measured:
Assay type in all cases: cell-based
A431 cells = assay: Cellular proliferation (Alamar Blue) assay, A431; conditions: Homo sapiens, A-431; A431 cells, 72 hr, Alamar Blue; read-out: A431 IC50
How it was run: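 Following a 16–18 h pre-incubation, cells received compound or DMSO for 72 h at 37 °C across a 10–0.0005 μM final range. Proliferation was then scored by Alamar Blue fluorescence (540 nm excitation, 590 nm emission) after 3 h.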

[1] = target: EGFR (A767_dupASV) expressing Ba/F3 stable cell line (Homo sapiens, UniProt P00533, DUP767-769, cells depend on it); assay: Cellular proliferation (Alamar Blue) assay, EGFR A767_dupASV Ba/F3; conditions: EGFR A767_dupASV Ba/F3, 72 hr, read-out: A767 IC50
Sequence of EGFR (A767_dupASV) expressing Ba/F3 stable cell line (P00533 with tags, fused parts or gaps DUP767-769): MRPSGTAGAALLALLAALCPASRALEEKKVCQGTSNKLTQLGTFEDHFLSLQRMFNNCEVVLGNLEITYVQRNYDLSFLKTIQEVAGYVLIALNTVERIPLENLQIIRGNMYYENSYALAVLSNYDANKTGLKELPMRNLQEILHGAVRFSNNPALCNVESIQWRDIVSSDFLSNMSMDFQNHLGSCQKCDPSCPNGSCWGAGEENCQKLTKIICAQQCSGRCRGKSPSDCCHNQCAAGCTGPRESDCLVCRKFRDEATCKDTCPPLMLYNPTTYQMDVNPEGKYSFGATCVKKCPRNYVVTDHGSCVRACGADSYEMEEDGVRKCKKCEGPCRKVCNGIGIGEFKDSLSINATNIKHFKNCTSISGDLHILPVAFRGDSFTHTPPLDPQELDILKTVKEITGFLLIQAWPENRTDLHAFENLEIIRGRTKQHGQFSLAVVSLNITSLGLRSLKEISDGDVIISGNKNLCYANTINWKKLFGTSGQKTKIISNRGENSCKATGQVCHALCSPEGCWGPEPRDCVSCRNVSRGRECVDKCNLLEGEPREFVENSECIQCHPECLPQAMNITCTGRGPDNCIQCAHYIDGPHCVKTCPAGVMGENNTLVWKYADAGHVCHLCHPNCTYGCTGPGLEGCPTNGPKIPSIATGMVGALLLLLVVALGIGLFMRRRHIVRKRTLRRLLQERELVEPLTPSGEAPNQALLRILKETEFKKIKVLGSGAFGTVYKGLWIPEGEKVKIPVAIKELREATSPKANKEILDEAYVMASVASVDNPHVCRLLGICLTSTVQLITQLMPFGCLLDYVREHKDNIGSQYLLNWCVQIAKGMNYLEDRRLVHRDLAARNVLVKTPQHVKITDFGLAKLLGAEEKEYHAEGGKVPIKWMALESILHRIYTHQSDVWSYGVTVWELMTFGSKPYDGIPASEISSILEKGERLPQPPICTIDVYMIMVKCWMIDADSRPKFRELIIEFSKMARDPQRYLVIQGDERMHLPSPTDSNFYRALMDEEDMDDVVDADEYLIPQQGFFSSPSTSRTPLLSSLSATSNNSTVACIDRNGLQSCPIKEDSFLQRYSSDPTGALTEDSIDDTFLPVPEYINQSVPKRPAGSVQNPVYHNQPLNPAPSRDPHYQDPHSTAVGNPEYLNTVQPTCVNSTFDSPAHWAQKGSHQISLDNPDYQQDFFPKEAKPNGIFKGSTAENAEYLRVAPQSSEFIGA
How it was run: (§1)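 Plate cells (Ba/F3: 15,000/well, RPMI/10% FBS), 16–18 h, 37 °C. Add cpd, 3-fold dilutions, 10–0.0005 μM final, DMSO ctrl; 72 h. Alamar Blue 3 h; read Ex540/Em590.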

[2] = target: EGFR(D770_N771insSVD) expressing Ba/F3 stable cell line (Homo sapiens, UniProt P00533, DUP768-770, cells depend on it); assay: Cellular proliferation (Alamar Blue) assay, EGFR D770_N771insSVD Ba/F3; conditions: EGFR D770_N771insSVD Ba/F3, 72 hr, read-out: D770 IC50
Sequence of EGFR(D770_N771insSVD) expressing Ba/F3 stable cell line (P00533 with tags, fused parts or gaps DUP768-770): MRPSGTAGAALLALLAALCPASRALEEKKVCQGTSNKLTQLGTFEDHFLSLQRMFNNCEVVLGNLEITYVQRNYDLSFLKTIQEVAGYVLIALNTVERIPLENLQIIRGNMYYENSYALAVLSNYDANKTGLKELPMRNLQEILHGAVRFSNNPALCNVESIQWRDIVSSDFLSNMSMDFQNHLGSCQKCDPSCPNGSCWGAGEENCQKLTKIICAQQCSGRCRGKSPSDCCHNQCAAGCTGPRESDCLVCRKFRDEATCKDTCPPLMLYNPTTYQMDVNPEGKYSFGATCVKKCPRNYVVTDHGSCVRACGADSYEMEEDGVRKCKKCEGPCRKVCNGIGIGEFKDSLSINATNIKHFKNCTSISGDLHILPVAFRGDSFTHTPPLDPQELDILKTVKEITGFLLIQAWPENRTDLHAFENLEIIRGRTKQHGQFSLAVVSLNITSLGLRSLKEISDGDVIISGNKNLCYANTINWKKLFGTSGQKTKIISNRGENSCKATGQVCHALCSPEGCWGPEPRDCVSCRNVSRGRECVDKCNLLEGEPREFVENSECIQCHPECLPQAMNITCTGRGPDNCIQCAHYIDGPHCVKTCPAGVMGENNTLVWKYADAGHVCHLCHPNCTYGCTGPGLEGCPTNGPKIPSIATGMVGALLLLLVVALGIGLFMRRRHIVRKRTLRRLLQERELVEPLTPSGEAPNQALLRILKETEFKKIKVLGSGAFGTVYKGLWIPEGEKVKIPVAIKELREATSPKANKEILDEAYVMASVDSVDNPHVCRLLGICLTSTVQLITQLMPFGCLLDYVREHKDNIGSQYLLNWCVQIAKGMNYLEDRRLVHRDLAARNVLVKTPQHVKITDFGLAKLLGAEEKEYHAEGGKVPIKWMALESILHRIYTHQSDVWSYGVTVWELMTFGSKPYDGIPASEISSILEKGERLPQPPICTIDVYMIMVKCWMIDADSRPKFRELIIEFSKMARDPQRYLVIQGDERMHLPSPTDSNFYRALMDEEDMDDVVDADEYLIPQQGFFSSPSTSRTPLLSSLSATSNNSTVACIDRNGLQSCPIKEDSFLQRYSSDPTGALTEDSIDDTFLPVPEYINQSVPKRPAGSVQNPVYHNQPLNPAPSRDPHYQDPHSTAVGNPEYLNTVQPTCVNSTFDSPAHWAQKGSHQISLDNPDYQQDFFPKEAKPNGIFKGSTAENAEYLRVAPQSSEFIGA
How it was run: as §1

[3] = target: HER2 (A775_G776insYVMA) expressing Ba/F3 stable cell line (Homo sapiens, UniProt P04626, DUP772-775, cells depend on it); assay: Cellular proliferation (Alamar Blue) assay, HER2 YVMA Ba/F3; conditions: HER2 A775_G776insYVMA Ba/F3, 72 hr, read-out: YVMA IC50
Sequence of HER2 (A775_G776insYVMA) expressing Ba/F3 stable cell line (P04626 with tags, fused parts or gaps DUP772-775): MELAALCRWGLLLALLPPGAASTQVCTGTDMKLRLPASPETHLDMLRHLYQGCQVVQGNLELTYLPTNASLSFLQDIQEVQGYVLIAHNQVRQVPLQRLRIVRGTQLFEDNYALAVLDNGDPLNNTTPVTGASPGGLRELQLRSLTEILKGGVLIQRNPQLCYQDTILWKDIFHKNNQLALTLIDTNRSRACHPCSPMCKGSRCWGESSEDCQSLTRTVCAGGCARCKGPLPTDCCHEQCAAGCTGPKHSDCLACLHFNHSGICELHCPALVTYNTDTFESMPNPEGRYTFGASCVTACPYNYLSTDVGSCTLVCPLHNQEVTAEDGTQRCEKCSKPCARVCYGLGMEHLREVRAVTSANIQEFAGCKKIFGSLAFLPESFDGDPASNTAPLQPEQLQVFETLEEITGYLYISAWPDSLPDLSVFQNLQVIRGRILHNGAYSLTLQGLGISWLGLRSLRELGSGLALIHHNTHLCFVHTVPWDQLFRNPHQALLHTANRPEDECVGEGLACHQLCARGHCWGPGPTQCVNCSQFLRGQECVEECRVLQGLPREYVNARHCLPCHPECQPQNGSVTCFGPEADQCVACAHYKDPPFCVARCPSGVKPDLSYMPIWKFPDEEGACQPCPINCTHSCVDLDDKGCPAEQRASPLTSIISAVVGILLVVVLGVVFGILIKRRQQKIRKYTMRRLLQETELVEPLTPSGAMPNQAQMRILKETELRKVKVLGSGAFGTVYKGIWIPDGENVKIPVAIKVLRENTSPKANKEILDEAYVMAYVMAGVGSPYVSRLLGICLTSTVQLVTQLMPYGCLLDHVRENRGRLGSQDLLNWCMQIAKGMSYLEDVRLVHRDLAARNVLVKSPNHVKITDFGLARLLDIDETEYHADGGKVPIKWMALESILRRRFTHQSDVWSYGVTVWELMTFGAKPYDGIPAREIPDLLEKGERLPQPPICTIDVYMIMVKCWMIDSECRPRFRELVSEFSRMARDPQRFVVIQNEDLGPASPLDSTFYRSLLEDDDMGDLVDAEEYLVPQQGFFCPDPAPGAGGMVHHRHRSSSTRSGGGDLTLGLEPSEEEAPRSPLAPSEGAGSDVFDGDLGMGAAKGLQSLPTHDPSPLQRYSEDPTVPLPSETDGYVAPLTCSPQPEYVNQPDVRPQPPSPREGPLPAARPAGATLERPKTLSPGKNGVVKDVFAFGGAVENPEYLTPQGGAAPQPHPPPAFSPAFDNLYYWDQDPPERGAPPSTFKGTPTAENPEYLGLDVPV
Method: Example 3: Cellular Proliferation (Alamar Blue) Assays
• 1. EGFR(D770_N771insSVD) expressing Ba/F3 stable cell line • 2. EGFR (A767_dupASV) expressing Ba/F3 stable cell line • 3. A431 cells • 4. BTER2 (A775_G776insYVMA) expressing Ba/F3 stable cell line • 5. BTER2 (WT) expressing Ba/F3 stable cell line • 6. BT-474 cells
• 1. Seed cells at 5000 for A431 and 15,000 cells for Ba/F3 in 100 μL/well in complete media (for A431: DMEM with 10% FBS and for Ba/F3 cells: RPMI with 10% FBS) in 96-well tissue culture plate. Leave outer wells without cells for background measurements. Incubate at 37 degree Celsius in 5% CO2 humidified incubator for 16-18 hours. • 2. Add 0.025 ml of 5× concentration compound dilution or DMSO control. Final compound concentration range is 10-0.0005 μM prepared in 3-fold serial dilutions. Incubate for 72 hr at 37 degree Celsius in […] humidified incubator. • 3. Add 0.0125 mL Alamar Blue™ reagent to each well with multi-channel pipette and tap gently on each side of the plate to mix. Incubate for 3 hours at 37 degree Celsius in […] humidified incubator. • 4. Read plates on fluorescence reader (Tecan Spark Control, Device: Spark, Serial #: 1801006040) at 540 nm excitation, 590 nm emission wavelength. • 5. Data analysis was performed using XLfit 5.5.0.5.

Structure (SMILES) | IC50 (A431 cells) [nM] | GI50 [1] [nM] | GI50 [2] [nM] | GI50 [3] [nM]
C=CC(=O)Nc1ccc(F)c(N2C(=O)N(Cc3ccccc3)Cc3cnc(Nc4cn(C)nc4Cl)nc32)c1 [Compound 81, N-(3-(3-benzyl-7-((3-chloro-1-methyl-1H-pyrazol-4-yl)amino)-2-oxo-3,4-dihydropyrimido[4,5-d]pyrimidin-1(2H)-yl)-4-fluorophenyl)acrylamide] | ≥ 10000 | 27 | 35 | 13
Cn1cc(Nc2ncc3c(n2)N(c2cccc(NC(=O)/C=C/CN4CCCCC4)c2)C(=O)N(Cc2ccccc2)C3)c(F)n1 [Compound 82, (E)-N-(3-(3-benzyl-7-((3-fluoro-1-methyl-1H-pyrazol-4-yl)amino)-2-oxo-3,4-dihydropyrimido[4,5-d]pyrimidin-1(2H)-yl)phenyl)-4-(piperidin-1-yl)but-2-enamide] | ≥ 10000 | 123 | 280 | 40
COC/C=C/C(=O)Nc1cccc(N2C(=O)N(Cc3ccccc3)Cc3cnc(Nc4cn(C)nc4F)nc32)c1 [Compound 83, (E)-N-(3-(3-benzyl-7-((3-fluoro-1-methyl-1H-pyrazol-4-yl)amino)-2-oxo-3,4-dihydropyrimido[4,5-d]pyrimidin-1(2H)-yl)phenyl)-4-methoxybut-2-enamide] | ≥ 10000 | 1010 | 992 | 740
Cn1cc(Nc2ncc3c(n2)N(c2cccc(NC(=O)/C=C/CF)c2)C(=O)N(Cc2ccccc2)C3)c(F)n1 [Compound 88, (E)-N-(3-(3-benzyl-7-((3-fluoro-1-methyl-1H-pyrazol-4-yl)amino)-2-oxo-3,4-dihydropyrimido[4,5-d]pyrimidin-1(2H)-yl)phenyl)-4-fluorobut-2-enamide] | > 10000 | 22 | 40 | 101
CN(C)C/C=C/C(=O)Nc1cccc(N2C(=O)N(c3ccccc3)Cc3cnc(Nc4cnn(C5CCC(O)CC5)c4)nc32)c1 (stereo not drawn) [Compound 107, (E)-4-(dimethylamino)-N-(3-(7-((1-(4-hydroxycyclohexyl)-1H-pyrazol-4-yl)amino)-2-oxo-3-phenyl-3,4-dihydropyrimido[4,5-d]pyrimidin-1(2H)-yl)phenyl)but-2-enamide] | ≥ 10000 | ≥ 10000 | ≥ 10000 | ≥ 10000
C=CC(=O)Nc1cccc(N2C(=O)N(c3ccccc3)Cc3cnc(Nc4cnn(C5CCC(O)CC5)c4)nc32)c1 (stereo not drawn) [Compound 108, N-(3-(7-((1-(4-hydroxycyclohexyl)-1H-pyrazol-4-yl)amino)-2-oxo-3-phenyl-3,4-dihydropyrimido[4,5-d]pyrimidin-1(2H)-yl)phenyl)acrylamide] | ≥ 10000 | 912 | 634 | 2020
CN(C)C/C=C/C(=O)Nc1cccc(N2C(=O)N(c3ccccc3)Cc3cnc(Nc4ccc(N5CCN(C)CC5)nc4)nc32)c1 [Compound 109, (E)-4-(dimethylamino)-N-(3-(7-((6-(4-methylpiperazin-1-yl)pyridin-3-yl)amino)-2-oxo-3-phenyl-3,4-dihydropyrimido[4,5-d]pyrimidin-1(2H)-yl)phenyl)but-2-enamide] | ≥ 10000 | 2320 | 6030 | 3300
Cn1cc(Nc2ncc3c(n2)N(c2cccc(NC(=O)/C=C/CN4CCCCC4)c2)C(=O)N(c2ccccc2)C3)c(Cl)n1 [Compound 111, (E)-N-(3-(7-((3-chloro-1-methyl-1H-pyrazol-4-yl)amino)-2-oxo-3-phenyl-3,4-dihydropyrimido[4,5-d]pyrimidin-1(2H)-yl)phenyl)-4-(piperidin-1-yl)but-2-enamide] | ≥ 10000 | 39 | 128 | 64

Next, values leading:

IC50 (A431 cells) [nM] | GI50 [1] [nM] | GI50 [2] [nM] | GI50 [3] [nM] | Structure (SMILES)
≥ 10000 | 42 | 72 | 38 | Cn1cc(Nc2ncc3c(n2)N(c2cccc(NC(=O)/C=C/CN4CCCCC4)c2)C(=O)N(Cc2ccccc2)C3)c(Cl)n1 [Compound 70, (E)-N-(3-(3-benzyl-7-((3-chloro-1-methyl-1H-pyrazol-4-yl)amino)-2-oxo-3,4-dihydropyrimido[4,5-d]pyrimidin-1(2H)-yl)phenyl)-4-(piperidin-1-yl)but-2-enamide]
≥ 10000 | 22 | 21 | 137 | C=CC(=O)Nc1cccc(N2C(=O)N(Cc3ccccc3)Cc3cnc(Nc4cn(C)nc4F)nc32)c1 [Compound 71, N-(3-(3-benzyl-7-((3-fluoro-1-methyl-1H-pyrazol-4-yl)amino)-2-oxo-3,4-dihydropyrimido[4,5-d]pyrimidin-1(2H)-yl)phenyl)acrylamide]
≥ 10000 | 100 | 296 | 575 | C=CC(=O)Nc1cccc(N2C(=O)N(Cc3ccccc3)Cc3cnc(Nc4ccc(N5CCC(N(C)C)CC5)nc4)nc32)c1 [Compound 72, N-(3-(3-benzyl-7-((6-(4-(dimethylamino)piperidin-1-yl)pyridin-3-yl)amino)-2-oxo-3,4-dihydropyrimido[4,5-d]pyrimidin-1(2H)-yl)phenyl)acrylamide]
≥ 10000 | 4 | 20 | 49 | C=CC(=O)Nc1cccc(N2C(=O)N(Cc3ccccc3)Cc3cnc(Nc4cn(C)nc4Cl)nc32)c1 [Compound 73, N-(3-(3-benzyl-7-((3-chloro-1-methyl-1H-pyrazol-4-yl)amino)-2-oxo-3,4-dihydropyrimido[4,5-d]pyrimidin-1(2H)-yl)phenyl)acrylamide]
≥ 10000 | 11 | 25 | 80 | Cn1cc(Nc2ncc3c(n2)N(c2cccc(NC(=O)/C=C/CF)c2)C(=O)N(Cc2ccccc2)C3)c(Cl)n1 [Compound 74, (E)-N-(3-(3-benzyl-7-((3-chloro-1-methyl-1H-pyrazol-4-yl)amino)-2-oxo-3,4-dihydropyrimido[4,5-d]pyrimidin-1(2H)-yl)phenyl)-4-fluorobut-2-enamide]
≥ 10000 | 89 | 107 | 338 | C=CC(=O)Nc1cccc(N2C(=O)N(Cc3ccccc3)Cc3cnc(Nc4cccc5c4CCN5C)nc32)c1 [Compound 79, N-(3-(3-benzyl-7-((1-methylindolin-4-yl)amino)-2-oxo-3,4-dihydropyrimido[4,5-d]pyrimidin-1(2H)-yl)phenyl)acrylamide]
≥ 10000 | 343 | 806 | 296 | CN(C)C/C=C/C(=O)Nc1cccc(N2C(=O)N(Cc3ccccc3)Cc3cnc(Nc4cccc5c4CCN5C)nc32)c1 [Compound 80, (E)-N-(3-(3-benzyl-7-((1-methylindolin-4-yl)amino)-2-oxo-3,4-dihydropyrimido[4,5-d]pyrimidin-1(2H)-yl)phenyl)-4-(dimethylamino)but-2-enamide]
1280 | 94 | 123 | 38 | CN(C)C/C=C/C(=O)Nc1ccc(F)c(N2C(=O)N(Cc3ccccc3)Cc3cnc(Nc4cn(C)nc4Cl)nc32)c1 [Compound 85, (E)-N-(3-(3-benzyl-7-((3-chloro-1-methyl-1H-pyrazol-4-yl)amino)-2-oxo-3,4-dihydropyrimido[4,5-d]pyrimidin-1(2H)-yl)-4-fluorophenyl)-4-(dimethylamino)but-2-enamide]
8930 | 926 | 1110 | 995 | CN(C)C/C=C/C(=O)Nc1cccc(N2C(=O)N(c3ccccc3)Cc3cnc(Nc4cn(C5CCN(C)CC5)nc4Cl)nc32)c1 [Compound 106, (E)-N-(3-(7-((3-chloro-1-(1-methylpiperidin-4-yl)-1H-pyrazol-4-yl)amino)-2-oxo-3-phenyl-3,4-dihydropyrimido[4,5-d]pyrimidin-1(2H)-yl)phenyl)-4-(dimethylamino)but-2-enamide]
3640 | 43 | 102 | 103 | C=CC(=O)Nc1cccc(N2C(=O)N(c3ccccc3)Cc3cnc(Nc4ccc(N5CCN(C)CC5)nc4)nc32)c1 [Compound 110, N-(3-(7-((6-(4-methylpiperazin-1-yl)pyridin-3-yl)amino)-2-oxo-3-phenyl-3,4-dihydropyrimido[4,5-d]pyrimidin-1(2H)-yl)phenyl)acrylamide]

— patent US20230027026A1, “FUSED PYRIMIDINE COMPOUNDS, COMPOSITIONS AND MEDICINAL APPLICATIONS THEREOF” (JUBILANT BIOSYS LIMITED, priority 2019, published 2023)
